“Also recorded” adds a separate entry of the source.
Assay: Release of rapamycin from spray-coated microporous stents (UV spectroscopy at 280 nm)
Assay type: physicochemical
Conditions: for effect of second drug on rapamycin release from the stent platform: 0.5% and 1.0% 17β estradiol valerate added to 1% rapamycin solution in ethanol
Procedure: Microporous stents are spray-coated by means of a unique stent-coating machine (Wessely et al, supra). Attachment of a drug-reservoir is required to supply one or multiple drugs of choice. Besides sirolimus (rapamycin) we included a second drug at different concentrations to examine whether release kinetics of the primary compound (e.g. sirolimus) could be altered. Released rapamycin from the stent platform were measured at distinctive time points as previously described (Wessely, supra) by means of UV spectroscopy at a wave length of 280 nm.
The experiment was carried out as Example 1 with the exception that 17β estradiol was used as second drug.
The experiment was carried out as Example 1 with the exception that rosiglitazone was used as second drug.
The experiment was carried out as Example 1 with the exception that probucol was used as second drug.

CCCCC(=O)O[C@H]1CC[C@H]2[C@@H]3CCc4cc(O)ccc4[C@H]3CC[C@]12C [17β estradiol valerate]
effect of second drug on rapamycin release from the stent platform (0.1%): substantially modulate rapamycin release | effect of second drug on rapamycin release from the stent platform (0.1%, listed as estradiolvalerat): retardation

COc1ccccc1OCCNCC(O)COc1cccc2[nH]c3ccccc3c12 (stereo not shown) [carvedilol]
effect of second drug on stent-based rapamycin release (multiplex coating with rapamycin (1%) and carvedilol (0.5%) in ethanol vs single coated rapamycin (1%)): clear retardation

CC(C)(Sc1cc(C(C)(C)C)c(O)c(C(C)(C)C)c1)Sc1cc(C(C)(C)C)c(O)c(C(C)(C)C)c1 [probucol, 4,4′-(isopropylidenedithio) bis(2,6-di-tert-butyl-phenol)]
effect of second drug on release of rapamycin from the stent (0.1%, 0.5% and 1.0% probucol added to 4% rapamycin solution in ethanol, polymer-free): protracts the release of rapamycin; also recorded: modifiable

— US20090177280A1, “Implant With Multiple Coating” (priority 2005, published 2009)
